Data reported in PMC5555576, “Selective small-chemical inhibitors of protein arginine methyltransferase 5 with anti-lung cancer activity” (PLoS ONE, 2017).

What was measured:
PRMT5 F225M = test: Radioactive methyltransferase assay, mutant PRMT5; format: biochemical, human; settings: Phe225 to Met
Experimental: Methylation reactions were performed as previously described with a few modifications. Reaction mixtures (40 μl) containing 1.2 μg of PRMT5, 98 ng of PRMT1 or 98 ng of PRMT3; 2 μg of SmD3 or histones; 1 μCi of S-[methyl-^3H]adenosylmethionine (H^3-AdoMet; PerkinElmer); and 5 μM AdoMet were incubated in 50 mM Tris-HCl (pH 7.5)–1 mM EGTA–1 mM EDTA at 30°C for 2 h. Reaction mixtures (20 μl) were boiled in 5 μl of 5x SDS sample buffer and separated on a 15% polyacrylamide gel. Gels were fixed for 30 min in 40% methanol–10% acetic acid, incubated in 20 ml of Amplify (Amersham Life Science) for 10 min, dried and exposed to X-ray film at -80°C. IC50 was calculated by linear regression analysis of percent inhibition. The other half (20 μl) of each reaction mixture was spread onto DE81 chromatography paper discs (Whatman). The paper discs were washed 4 times with 50 mM NaHCO3 and dried. The amounts of methylated products were quantified by liquid scintillation.
The inhibitory activity of the compounds may stem from this interaction. To test this possibility, we conducted site-directed mutagenesis to mutate Phe225 in human PRMT5 (corresponding to Phe379 in the C. elegans PRMT5) to Met. The mutated PRMT5 was expressed in bacteria and purified by Ni-nitrilotriacetic acid (Ni-NTA) affinity chromatography (Fig 4A). The activity of the mutant PRMT5 was examined by the radioactive methyltransferase assay. […] The IC50 values for the mutant PRMT5 increased from 4.3 to 183 folds higher than those for the wild type PRMT5 (Fig 4D). […] The results also can help explain the specificity of the compounds to PRMT5. However, the contribution of this interaction to inhibition varies among the compounds. For example, compound C2 interacts with three amino acid residues (Lys451, Glu450, and Phe379) (Fig 3A) with the mutation of Phe to Met resulting in a 50-times higher IC50 (Fig 4C and 4D).
Fig 4 The conserved phenylalanine residue in PRMT5 is critical for inhibition by the five compounds. A, DS-PAGE of recombinant wild type (WT) and F225M mutant (MT) PRMT5. The gel was stained with Coomassie Brilliant Blue R250. A band corresponding to an unknown bacterial protein is indicated (star). B, The F225M mutation increased the methytransferase activity of PRMT5. In vitro methylation reactions were performed with recombinant wild type (lanes 2–4) or mutant (lanes 5–7) PRMT5 (1.2, 2.4 or 4.8 μg) and SmD3 (2 μg) as the substrate. C, The F225M mutation in PRMT5 decreased inhibition of arginine methylation by the compounds. The reaction mixture contained SmD3 (2 μg); wild type or mutant PRMT5 (1.2 μg); and 1, 10 or 100 μM compounds as indicated. D, The F225M mutation in PRMT5 […] of the compounds, as determined by quantitation and analysis of methylation assay results. TEXT PRINTED IN THE PICTURE: (D) C2: IC50 (μM) PRMT5: 0.1; IC50 (μM) PRMT5 F225M: 5.0 | (D) C5: IC50 (μM) PRMT5: 0.8; IC50 (μM) PRMT5 F225M: 3.5 | (D) C6: IC50 (μM) PRMT5: 0.5; IC50 (μM) PRMT5 F225M: 7.0 | (D) C9: IC50 (μM) PRMT5: 6.0; IC50 (μM) PRMT5 F225M: 45.0 | (D) C11: IC50 (μM) PRMT5: 0.3; IC50 (μM) PRMT5 F225M: 55.0

PRMT5 = target: T1, PRMT5 (Homo sapiens, UniProt O14744); test: Steady-state kinetic analysis of PRMT5 inhibition (time-dependent inhibition assay); format: biochemical
T1 construct: His6; made in house; host or cells: E. coli BL21(ED3) [sic]
T1 sequence (O14744 whole entry): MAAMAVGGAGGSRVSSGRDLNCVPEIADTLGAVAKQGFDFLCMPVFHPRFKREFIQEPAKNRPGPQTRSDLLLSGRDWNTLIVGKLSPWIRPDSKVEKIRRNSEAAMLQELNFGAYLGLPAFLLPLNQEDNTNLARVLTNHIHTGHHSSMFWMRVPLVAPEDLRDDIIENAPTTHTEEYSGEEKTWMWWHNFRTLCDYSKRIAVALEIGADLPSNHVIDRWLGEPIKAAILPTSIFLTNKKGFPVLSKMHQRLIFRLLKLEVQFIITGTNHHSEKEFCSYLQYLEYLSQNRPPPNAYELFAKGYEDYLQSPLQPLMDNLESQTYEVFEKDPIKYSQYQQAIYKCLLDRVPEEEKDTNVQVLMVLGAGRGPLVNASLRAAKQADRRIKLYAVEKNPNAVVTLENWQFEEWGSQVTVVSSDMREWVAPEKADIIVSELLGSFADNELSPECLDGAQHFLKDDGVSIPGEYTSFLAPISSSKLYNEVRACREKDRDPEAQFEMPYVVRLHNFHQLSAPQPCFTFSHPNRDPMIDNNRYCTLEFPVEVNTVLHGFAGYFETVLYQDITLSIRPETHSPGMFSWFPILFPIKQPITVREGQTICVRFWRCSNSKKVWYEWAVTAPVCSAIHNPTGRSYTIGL
Experimental: Different amounts of compound C2 or C5 were present in the final methylation reaction mixtures with 1.2 μg of PRMT5, 5 μM AdoMet, 2 μCi of H^3-AdoMet and various concentrations of SmD3. After a 10-, 20- or 30-min incubation at 30 °C or no incubation, the reaction mixtures were spread onto DE81 chromatography paper discs and the amounts of methylated products were quantified by liquid scintillation. Amounts (counts per minute [cpm]) of methylated products and incubation time (minutes) were plotted and reaction velocity (cpm per minute) was deduced.
To understand the mechanism of inhibition of identified compounds, we analyzed the kinetic pattern of inhibition using steady-state enzymatic measurements. The velocities of PRMT5 methylation of SmD3 were measured at several selected concentrations of compounds C2 and C5 over a range of SmD3 concentrations. Plotted in the double-reciprocal format with 1/velocity versus 1/[SmD3]
Fig 5 Steady-state kinetic analysis of PRMT5 inhibition by compounds C2 and C5. Double-reciprocal plot of reaction velocities (cpm per minute) versus concentrations of SmD3. Methylation reaction mixtures contained various concentrations of C2 (left) or C5 (right), various concentrations of SmD3, 1.2 μg of PRMT5 and 5 μM AdoMet. The mixtures were incubated for different times and the amounts of methylated products were quantified using DE81 paper and liquid scintillation. Reaction velocity was calculated as H^3 incorporation (cpm) into SmD3 per minute.

SMILES: CCn1c(=O)[nH]c2cc(C(=O)Nc3ccc(OC)cc3)ccc2c1=O [Compound C5]
- increase of IC50 for mutant PRMT5 over wild type PRMT5 (PRMT5 F225M): 4.3 fold
- mode of inhibition with regard to SAM (PRMT5): not competitive inhibitors
- mode of inhibition with regard to the SmD3 substrate (PRMT5; double-reciprocal plot): competitive inhibitors
